{"source": "patent US6537744B1", "about": "“Use of biomarkers in saliva to evaluate the toxicity of agents and the function of tissues in both biomedical and environmental applications” (priority 1995, dated 2003)", "test_system": "carboxylase in human saliva", "assay": "Inhibition of carboxylase in human saliva (p-nitrophenylvalerate hydrolysis, 400 nm)", "assay_type": "biochemical", "method": "The carboxylase activity in saliva samples is monitored by the hydrolysis of p-nitrophenylvalerate to the readily detectable p-nitrophenol. The concentration of p-nitrophenol in the sample is measured spectrophotometrically at 400 nm, and the value is calculated from p-nitrophenol standard curve (Table 3 and FIG. 4). Values for carboxylase activity in saliva (nmol. min-1 per mL of saliva) are presented in Tables 4-8 and showing in FIG. 5 and FIG. 6. The average specific activity for carboxylase in human saliva is about 47 nmol min^−1 per mL.\nThe assay for carboxylase consists of 4 mL of tris-HCl buffer (pH 7.0) that contain 25 μL of p-nitrophenylvalerate (13.8 mg/mL of alcohol) and 50-500 μL of human saliva. […] In the inhibition study, the agent is incubated with saliva for about 15-20 minutes before the addition of p-nitrophenylvalerate. Organophosphate concentration is verified by gas chromatography using standard methods as described by Knaak et al. (1993).", "key": {"[1]": {"conditions": "1.0 ng/ml, Test #2, 0.2 mL saliva, 15 min preincubation at 37° C., 30 min with substrate"}, "[2]": {"conditions": "2.9 ng/ml, Test #2, 0.2 mL saliva, 15 min preincubation at 37° C., 30 min with substrate"}, "[3]": {"conditions": "8.6 ng/ml, Test #2, 0.2 mL saliva, 15 min preincubation at 37° C., 30 min with substrate"}, "[4]": {"conditions": "26 ng/mL, Test #1, 100 μL saliva, 15 min preincubation at 37° C."}, "[5]": {"conditions": "52 ng/mL, Test #1, 100 μL saliva, 15 min preincubation at 37° C."}, "[6]": {"conditions": "78 ng/mL, Test #1, 100 μL saliva, 15 min preincubation at 37° C."}, "[7]": {"conditions": "156 ng/mL, Test #1, 100 μL saliva, 15 min preincubation at 37° C."}, "[8]": {"conditions": "312 ng/mL, Test #1, 100 μL saliva, 15 min preincubation at 37° C."}, "[9]": {"conditions": "625 ng/mL, Test #1, 100 μL saliva, 15 min preincubation at 37° C."}, "[10]": {"conditions": "175 μg/ml, test #1, 200 μL saliva, 15 min preincubation, 37° C."}, "[11]": {"conditions": ".04 ng/ml, Test #2, 0.2 mL saliva, 15 min preincubation at 37° C., 30 min with substrate"}, "[12]": {"conditions": ".1 ng/ml, Test #2, 0.2 mL saliva, 15 min preincubation at 37° C., 30 min with substrate"}, "[13]": {"conditions": ".3 ng/ml, Test #2, 0.2 mL saliva, 15 min preincubation at 37° C., 30 min with substrate"}}}
{"smiles": "CCOP(N)(=O)Oc1ccccc1C(=O)OC(C)C", "note": "(stereo not drawn) [DNIO, des N-Isofenphos-oxon]", "values": [{"measurement": "% Activity", "setting": "[1]", "result": 57, "unit": "%"}, {"measurement": "% Inhibition", "setting": "[1]", "result": 43, "unit": "%"}, {"measurement": "Absorb. at 400 nm", "setting": "[1]", "result": ".46"}, {"measurement": "nmol/min per mg protein", "setting": "[1]", "result": 7.46, "unit": "nmol/min per mg protein"}, {"measurement": "% Activity", "setting": "[2]", "result": 50, "unit": "%"}, {"measurement": "% Inhibition", "setting": "[2]", "result": 50, "unit": "%"}, {"measurement": "Absorb. at 400 nm", "setting": "[2]", "result": ".40"}, {"measurement": "nmol/min per mg protein", "setting": "[2]", "result": 6.55, "unit": "nmol/min per mg protein"}, {"measurement": "% Activity", "setting": "[3]", "result": 40, "unit": "%"}, {"measurement": "% Inhibition", "setting": "[3]", "result": 60, "unit": "%"}, {"measurement": "Absorb. at 400 nm", "setting": "[3]", "result": ".32"}, {"measurement": "nmol/min per mg protein", "setting": "[3]", "result": 5.24, "unit": "nmol/min per mg protein"}, {"measurement": "% Activity", "setting": "[4]", "result": 3, "unit": "%"}, {"measurement": "% Inhibition", "setting": "[4]", "result": 97, "unit": "%"}, {"measurement": "Absorb. at 400 nm for 20 min.", "setting": "[4]", "result": ".02"}, {"measurement": "Absorb. at 400 nm for 40 min.", "setting": "[4]", "result": ".03"}, {"measurement": "Absorb. at 400 nm for 80 min", "setting": "[4]", "result": ".02"}, {"measurement": "% Activity", "setting": "[5]", "result": 5, "unit": "%"}, {"measurement": "% Inhibition", "setting": "[5]", "result": 95, "unit": "%"}, {"measurement": "Absorb. at 400 nm for 20 min.", "setting": "[5]", "result": ".03"}, {"measurement": "Absorb. at 400 nm for 40 min.", "setting": "[5]", "result": ".03"}, {"measurement": "Absorb. at 400 nm for 80 min", "setting": "[5]", "result": ".03"}, {"measurement": "% Activity", "setting": "[6]", "result": 3, "unit": "%"}, {"measurement": "% Inhibition", "setting": "[6]", "result": 97, "unit": "%"}, {"measurement": "Absorb. at 400 nm for 20 min.", "setting": "[6]", "result": ".02"}, {"measurement": "Absorb. at 400 nm for 40 min.", "setting": "[6]", "result": ".02"}, {"measurement": "Absorb. at 400 nm for 80 min", "setting": "[6]", "result": ".02"}, {"measurement": "% Activity", "setting": "[7]", "result": 5, "unit": "%"}, {"measurement": "% Inhibition", "setting": "[7]", "result": 95, "unit": "%"}, {"measurement": "Absorb. at 400 nm for 20 min.", "setting": "[7]", "result": ".02"}, {"measurement": "Absorb. at 400 nm for 40 min.", "setting": "[7]", "result": ".02"}, {"measurement": "Absorb. at 400 nm for 80 min", "setting": "[7]", "result": ".03"}, {"measurement": "% Activity", "setting": "[8]", "result": 13, "unit": "%"}, {"measurement": "% Inhibition", "setting": "[8]", "result": 87, "unit": "%"}, {"measurement": "Absorb. at 400 nm for 20 min.", "setting": "[8]", "result": ".04"}, {"measurement": "Absorb. at 400 nm for 40 min.", "setting": "[8]", "result": ".06"}, {"measurement": "Absorb. at 400 nm for 80 min", "setting": "[8]", "result": ".08"}, {"measurement": "% Activity", "setting": "[9]", "result": 16, "unit": "%"}, {"measurement": "% Inhibition", "setting": "[9]", "result": 84, "unit": "%"}, {"measurement": "Absorb. at 400 nm for 20 min.", "setting": "[9]", "result": ".05"}, {"measurement": "Absorb. at 400 nm for 40 min.", "setting": "[9]", "result": ".07"}, {"measurement": "Absorb. at 400 nm for 80 min", "setting": "[9]", "result": ".10"}, {"measurement": "% Act.", "setting": "5 μg/mL, Test #2, 50 μL saliva, 20 min preincubation", "result": 35, "unit": "%"}, {"measurement": "% Inhib.", "setting": "[10]", "result": 92, "unit": "%"}, {"measurement": "Absorb. at 400 nm for 20 min.", "setting": "[10]", "result": ".16"}, {"measurement": "Absorb. at 400 nm for 60 min.", "setting": "[10]", "result": ".55"}, {"measurement": "% Activity", "setting": "[11]", "result": 94, "unit": "%"}, {"measurement": "% Inhibition", "setting": "[11]", "result": 6, "unit": "%"}, {"measurement": "Absorb. at 400 nm", "setting": "[11]", "result": ".75"}, {"measurement": "nmol/min per mg protein", "setting": "[11]", "result": 12.31, "unit": "nmol/min per mg protein"}, {"measurement": "% Activity", "setting": "[12]", "result": 83, "unit": "%"}, {"measurement": "% Inhibition", "setting": "[12]", "result": 17, "unit": "%"}, {"measurement": "Absorb. at 400 nm", "setting": "[12]", "result": ".66"}, {"measurement": "nmol/min per mg protein", "setting": "[12]", "result": 10.87, "unit": "nmol/min per mg protein"}, {"measurement": "% Activity", "setting": "[13]", "result": 78, "unit": "%"}, {"measurement": "% Inhibition", "setting": "[13]", "result": 22, "unit": "%"}, {"measurement": "Absorb. at 400 nm", "setting": "[13]", "result": ".62"}, {"measurement": "nmol/min per mg protein", "setting": "[13]", "result": 10.21, "unit": "nmol/min per mg protein"}, {"measurement": "effective concentration for 50% inhibition EC50", "setting": "carboxylase, human saliva", "result": 3, "unit": "ng/mL"}, {"measurement": "inhibition of carboxylase (in words)", "setting": "human saliva", "result": "inhibited"}]}
